From patent US6965013B2, “Intermedin and its uses” (The Board of Trustees of the Leland Stanford Junior …, priority 2002, dated 2005)
Ends that are not written are not given here.

Legend:
[1] = tested on: spontaneously hypertensive rats (SHR); assay: Blood pressure in spontaneously hypertensive rats (tail-cuff); format: in vivo, rat; details: male SHR, FIG. 6D; for blockage of the hypotensive effects of IMDL: cotreatment with IMDL
Protocol: (§1) Effects of intermedin on blood pressure and heart rate in normal and hypertensive rats. Blood pressure measurements in conscious male Sprague-Dawley rats and spontaneously hypertensive rats (SHR)(7-9 weeks of age) were made in animals preadapted to the measurement procedure. Indirect systolic pressure was determined by a programmable NIBP system using the tail-cuff method (Columbus Instruments, Columbus, Ohio). Following attachment of the pressure transducer, rats were left undisturbed for 10 min before baseline measurements that spanned a 15-min interval. Following baseline measurements, rats were injected intraperitoneally with varying doses of hormones. Blood pressure and heart rate were monitored for 40 min at 20-sec intervals. Changes in blood pressure were calculated as the average of thirty measurements performed within each 10-min interval.

male Sprague-Dawley rats = assay: Blood pressure and heart rate in normal rats (tail-cuff); format: in vivo, rat; details: for blockage of the hypotensive effect of IMDL: male Sprague-Dawley rats, cotreatment with IMDL, CGRP8-37 in 20-fold excess, FIG. 6C; for systolic blood pressure / heart rate: conscious male Sprague-Dawley rats, intraperitoneal; for systolic blood pressure: monitored 40 min, FIGS. 6A, 6C; for heart rate: FIG. 6B
Protocol: as §1

[2] = target: T1, SK-N-MC cells expressing endogenous CRLR (CGRP receptor) (Homo sapiens, UniProt O60894+Q16602); assay: Stimulation of cAMP production in SK-N-MC cells; format: cell-based; details: 30 min treatment, 2.5 mM IBMX, FIG. 2A
T1 construct: expressing endogenous CRLR; host or cells: SK-N-MC human neuroblastoma cells
T1 sequence (Q16602 23-461): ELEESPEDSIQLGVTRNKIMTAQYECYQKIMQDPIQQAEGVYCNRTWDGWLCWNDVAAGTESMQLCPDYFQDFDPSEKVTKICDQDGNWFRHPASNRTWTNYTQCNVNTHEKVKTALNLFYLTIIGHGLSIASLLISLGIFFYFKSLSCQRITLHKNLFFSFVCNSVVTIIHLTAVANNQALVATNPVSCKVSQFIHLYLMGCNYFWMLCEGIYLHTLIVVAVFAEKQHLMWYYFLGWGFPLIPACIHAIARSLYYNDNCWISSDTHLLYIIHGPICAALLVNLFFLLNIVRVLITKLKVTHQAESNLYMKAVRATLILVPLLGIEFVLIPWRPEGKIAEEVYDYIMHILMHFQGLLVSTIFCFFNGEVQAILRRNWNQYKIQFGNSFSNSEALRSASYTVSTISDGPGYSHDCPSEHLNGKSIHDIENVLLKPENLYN
T1 sequence (O60894 27-148 partner): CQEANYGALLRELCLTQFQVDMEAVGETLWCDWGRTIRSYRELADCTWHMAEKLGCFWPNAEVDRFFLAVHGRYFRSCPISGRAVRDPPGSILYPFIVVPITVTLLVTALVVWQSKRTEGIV
Protocol: (§2) Human neuroblastoma SK-N-MC and rat L6 skeletal myoblast cells expressing endogenous CRLR were obtained from American Type Culture Collection. To estimate adenylyl cyclase activation, SK-N-MC and L6 cells (2×10^5 viable cells/well) were plated in 24-well culture dishes in DMEM/F12 medium one day before treatment. Following 2 h incubation in serum-free DMEM/F12 medium, cells were treated with testing reagents for 30 min in medium containing 0.1% BSA and 2.5 mM 3-isobutyl-1-methylxanthine (IBMX, Sigma-Aldrich Corp.) to prevent hydrolysis of cAMP by phosphodiesterases. Following treatment, cells were lysed and cAMP content determined by a specific radioimmunoassay.

[3] = target: T2, L6 skeletal myoblast cells expressing endogenous CRLR (CGRP receptor) (Rattus norvegicus, UniProt Q63118+Q9JJ74); assay: Stimulation of cAMP production in L6 cells; format: cell-based; details: for cAMP production: 30 min treatment, 2.5 mM IBMX, FIG. 2B
T2 construct: expressing endogenous CRLR; host or cells: L6 rat skeletal myoblast cells
T2 sequence (Q63118 24-464): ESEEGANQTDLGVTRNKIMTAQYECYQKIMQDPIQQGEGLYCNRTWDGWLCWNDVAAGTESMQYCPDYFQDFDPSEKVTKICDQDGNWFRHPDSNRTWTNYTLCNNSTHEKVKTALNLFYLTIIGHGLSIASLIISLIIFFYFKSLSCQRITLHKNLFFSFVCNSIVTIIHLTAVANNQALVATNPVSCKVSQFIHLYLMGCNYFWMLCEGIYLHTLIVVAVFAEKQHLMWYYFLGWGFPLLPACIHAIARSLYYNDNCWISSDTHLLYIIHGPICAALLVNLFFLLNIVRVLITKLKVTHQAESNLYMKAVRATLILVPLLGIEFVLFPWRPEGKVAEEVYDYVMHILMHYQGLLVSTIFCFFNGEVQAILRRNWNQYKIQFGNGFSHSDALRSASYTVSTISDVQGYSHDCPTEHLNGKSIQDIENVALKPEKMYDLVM
T2 sequence (Q9JJ74 27-148 partner): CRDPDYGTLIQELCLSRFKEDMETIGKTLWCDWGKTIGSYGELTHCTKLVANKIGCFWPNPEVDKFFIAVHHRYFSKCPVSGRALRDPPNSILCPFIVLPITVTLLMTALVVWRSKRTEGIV
Protocol: as §2

[4] = target: T3, CGRP receptor (CRLR) on intact L6 cells (Rattus norvegicus, UniProt Q63118+Q9JJ74); assay: Receptor-binding assay, displacement of 125I-CGRP from L6 cells; details: 37C, 2 h, FIG. 2F
T3 construct: expressing endogenous CRLR; host or cells: L6 rat skeletal myoblast cells
T3 sequence (Q63118 24-464): as the sequence (Q63118 24-464) above
T3 sequence (Q9JJ74 27-148 partner): as the sequence (Q9JJ74 27-148 partner) above
Protocol: Receptor-binding assay. Ligand-binding assays were done in siliconized microfuge tubes at 37C for 2 h. […] After a 2 h incubation at 37C, the cell-associated ligand was estimated. Radioactivity was determined using a γ-counter (EG&G Wallace, Gaithersburg, Md.).

C57/BL6 male mice [5] = assay: Cumulative food intake in fasted mice; format: in vivo, mouse; details: mice fasted 20 h, intraperitoneal 100 nM/Kg, 1, 2 and 4 h after treatment, FIG. 7
Protocol: Analysis of ingestive behavior. Eight-week-old C57/BL6 male mice were housed individually in a regulated environment. Before intraperitoneal injection with testing reagents, mice were deprived of food for 20 h with free access to water. Food intake was measured by placing preweighed pellets in the cage and weighing uneaten pellets at 1, 2, and 4 h after treatment.

C57/BL6 male mice [6] = assay: Gastric emptying activity in mice; format: in vivo, mouse; details: intraperitoneal 100 nM/Kg, 90 min after hormone treatment, FIG. 8
Protocol: Effects of intermedin on gastric emptying activity. Eight-week-old C57/BL6 male mice deprived of food for 20 h were given food pellets for 90 min before intraperitoneal injection with different hormones or saline. After treatment, mice were deprived of food again and killed 90 min later. The stomach was excised at the pylorus and cardia before weighing. Gastric emptying was calculated by comparing the stomach weight of treated mice to the stomach weight of control mice killed at the time of hormone injection.

[7] = humans, administration of ADM, earlier studies; cited from earlier work
[8] = target: T4, endogenous calcitonin receptor (Homo sapiens, UniProt P30988); assay: cAMP production in 293T cells via the endogenous calcitonin receptor; format: cell-based; details: FIG. 3A
T4 construct: through the endogenous calcitonin receptor; endogenous in cells; host or cells: HEK293T
T4 sequence (P30988 25-474): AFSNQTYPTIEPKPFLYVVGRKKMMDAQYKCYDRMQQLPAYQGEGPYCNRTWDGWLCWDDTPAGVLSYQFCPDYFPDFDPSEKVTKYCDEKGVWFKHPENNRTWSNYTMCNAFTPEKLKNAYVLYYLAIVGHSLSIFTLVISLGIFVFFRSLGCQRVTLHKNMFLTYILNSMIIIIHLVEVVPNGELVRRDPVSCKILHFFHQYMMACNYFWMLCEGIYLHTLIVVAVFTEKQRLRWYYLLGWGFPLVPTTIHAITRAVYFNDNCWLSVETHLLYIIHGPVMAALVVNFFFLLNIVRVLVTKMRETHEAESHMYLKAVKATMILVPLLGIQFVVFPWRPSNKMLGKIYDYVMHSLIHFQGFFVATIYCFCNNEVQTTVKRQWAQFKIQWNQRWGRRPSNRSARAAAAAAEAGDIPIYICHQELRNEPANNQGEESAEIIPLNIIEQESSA

Row | cAMP production [3] | Substance | systolic blood pressure (male Sprague-Dawley rats) | heart rate (male Sprague-Dawley rats) | cumulative food intake (C57/BL6 male mice [5]) | gastric emptying activity (C57/BL6 male mice [6]) | also measured
1 |  | ADM22-52: low affinity ADM22-52 fragment (TVQKLAHQIYQFTDKDKDNVAPRSKISPQGY; ends and bridges not checked; UniProt P35318 116-146, looked up, fragment) |  |  |  |  | blockage of the hypotensive effects of IMDL [1]: minimal effect
2 |  | CGRP8-37: N-terminally truncated CGRP, a CGRP receptor antagonist (VTHRLAGLLSRSGGVVKNNFVPTNVGSKAF; ends and bridges not checked; UniProt P06881 90-119, looked up, fragment) [reference compound] |  |  |  |  | blockage of the hypotensive effect of IMDL (male Sprague-Dawley rats): significantly decreased the hypotensive effects of IMDL; blockage of the hypotensive effects of IMDL [1]: abolished
3 | no effect | IMD17-47: truncated amidated intermedin fragment, putative C-terminal receptor-binding domain (VQNLSHRLWQLMGPAGRQDSAPVDPSSPHSY-NH2) | no effect |  |  |  | cAMP production [2]: no effect; blockage of the stimulatory effect of intermedin on cAMP production ([3]; cotreatment with intermedin, IMD17-47 at 1 μM, FIGS. 2C, 2D): functional antagonist of intermedin action; blockage of the hypotensive effect of IMDL (male Sprague-Dawley rats): blocked the hypotensive effects of IMDL
4 |  | SRP/urocortin II: type II CRH receptor-selective agonist, known gastric emptying suppression peptide (IVLSLDVPIGLLQILLEQARARAAREQATTNARILARVGHC; Urocortin-2; UniProt Q96RP3 72-112, looked up) [reference compound] |  |  | decreased food intake | Reduction of gastric emptying | 
5 | stimulated cAMP production | adrenomedullin [ADM, reference compound] | dose-dependently suppressed systolic blood pressure | Increase in heart rate | decreased food intake | suppressed the gastric emptying activity, but with a lower potency | circulating prolactin levels [7]: increases circulating prolactin levels
6 |  | calcitonin |  |  |  |  | cAMP production [8]: increases cAMP dose-dependently
7 | no effect | nonamidated form of intermedin: nonamidated form of the synthetic intermedin peptide |  |  |  |  | 
8 | no effect | prointermedin55-85: 31-amino-acid peptide from the prepro-region of human intermedin (PRPVVWKLHRALQAQRGAGLAPVMGQPLRDG; pro-form; UniProt Q7Z4H4 55-85, looked up, fragment) | no effect |  |  |  | cAMP production [2]: no effect

Row | Substance | cAMP production [3] | systolic blood pressure (male Sprague-Dawley rats) | heart rate (male Sprague-Dawley rats) | cumulative food intake (C57/BL6 male mice [5]) | gastric emptying activity (C57/BL6 male mice [6]) | also measured
9 | IMDL: 47-amino-acid amidated mature human intermedin peptide, SEQ ID NO:5 residues 1-47 | dose-dependent increases of cAMP production | dose-dependently suppressed blood pressure | increased heart rate | decreased food intake | Reduction of gastric emptying | competitive displacement of 125I-CGRP binding [4]: displaced ^125I-CGRP binding; blood pressure ([1]; intraperitoneal): reduced blood pressure
10 | IMDS: 40-amino-acid amidated mature human intermedin peptide, SEQ ID NO:5 residues 8-47 | dose-dependent increases of cAMP production | dose-dependently suppressed blood pressure | increased heart rate | decreased food intake | Reduction of gastric emptying | competitive displacement of 125I-CGRP binding [4]: displaced ^125I-CGRP binding
